Test results taken from patent US11406655B2, “Once-daily treatment of pulmonary fibrosis” (Galecto Biotech AB, priority 2015, dated 2022).

Columns and labels:
[1] = First in Human single ascending dose phase I study: plasma pharmacokinetics after inhalation; assay type: in vivo
Method: (§1) This study was a randomized, double-blind, single center, placebo-controlled, single ascending dose (SAD), phase I study to assess the safety, tolerability, PK (pharmacokinetics) and PD (pharmacodynamics) of the compound of formula I in 36 healthy male volunteers (HV's). 6 dose cohorts of 6 subjects were evaluated using a 4:2 ratio (active:placebo). The compound of formula I was delivered to the lungs of HV's using the RS01 Monodose Dry Powder Inhaler (Plastiape) at the following 6 doses: 0.15 mg, 1.5 mg, 3 mg, 10 mg, 20 mg and 50 mg. The 0.15 mg, 1.5 mg and 3 mg dose was a 3% w/w lactose blend, whereas the 10 mg, 20 mg and 50 mg dose was formulated as neat material. The specific capsule filling weights were 5 mg for the 0.15 mg dose, 50 mg for the 1.5 mg dose, 5 mg for the 10 mg dose and 50 mg for the 50 mg dose. HV's were housed overnight and vital signs, EKG, physical exam, urinalysis and laboratory bloods followed for 14 days. PK blood sampling was taken prior to dosing and then at intervals up to 48 hrs post-dose. Plasma samples for drug concentration measurements were analyzed by the Bioanalytical Unit at Simbec (UK). PK variables were determined using the non-compartmental analysis option in the software WinNONLIN 6.3 from Certara based in Princeton, N.J. 08540 (www.certara.com).

[2] = GLP toxicokinetic studies, murine intravenous dosing; assay type: in vivo
[3] = Particle size (MMAD) of the dry powder used in the study; assay type: physicochemical; conditions: dry powder of the study in the Experimental section
Method: When the compound of formula (I) is formulated as a dry powder it may be present in a suitable particle size selected from a mean mass aerodynamic diameter (MMAD) between 0.1 and 20 μm, such as a MMAD between 0.5 and 10 μm, such as between 1 and 5 μm, typically between 2 and 3 μm. In the study described in the Experimental section below the MMAD was measured to 2.5 μm.

[4] = Radioisotope studies of lung deposition in mice; assay type: in vivo
[5] = First in Human single ascending dose phase I study: safety and tolerability; assay type: in vivo
Method: as §1

Galectin-3 = Galectin-3 (Homo sapiens, UniProt P17931); conditions: 3 mg inhaled dose; from Cmax, mouse lung/circulation ratio and ex-vivo data in human derived macrophages
Chain of Galectin-3 (P17931 whole entry): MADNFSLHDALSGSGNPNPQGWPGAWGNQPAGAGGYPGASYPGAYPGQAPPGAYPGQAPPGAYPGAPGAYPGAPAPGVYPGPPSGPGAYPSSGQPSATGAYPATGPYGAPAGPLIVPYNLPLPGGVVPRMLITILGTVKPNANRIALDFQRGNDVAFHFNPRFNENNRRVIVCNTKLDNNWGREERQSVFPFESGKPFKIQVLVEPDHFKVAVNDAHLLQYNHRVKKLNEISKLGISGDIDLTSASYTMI

- dose dependence of drug concentrations based on Cmax and AUC ([1]; inhaled single ascending doses 0.15-50 mg): exhibited dose proportionality
- Tmax ([1]; male, human, inhaled or intranasal, inhaled single dose, independent of dose): 0.8 to 3 h
- half-life ([1]; male, human, inhaled or intranasal, inhaled single dose, read-out: t½ (converted)): 12 h
- mean mass aerodynamic diameter (MMAD) [3]: 2.5 μm
- concentration in the lung relative to the circulation [4]: fifty times greater
- local concentration in the lung in man in excess of that required to suppress Galectin-3 in lung target cells (Galectin-3): 2 fold
SMILES: OC[C@H]1O[C@@H](S[C@@H]2O[C@H](CO)[C@H](O)[C@H](n3cc(-c4cccc(F)c4)nn3)[C@H]2O)[C@H](O)[C@@H](n2cc(-c3cccc(F)c3)nn2)[C@H]1O [compound of formula I, bis (3-deoxy-3-(3-fluorophenyl-1H-1,2,3-triazol-1-yl)-β-D-galactopyranosyl)-sulfane]
- fraction of compound found in the feces [2]: ~90%
- tolerability ([5]; healthy male volunteers, single inhaled dose, all 6 doses (0.15 mg to 50 mg), RS01 dry powder inhaler): extremely well tolerated
- adverse events (severity) ([5]; healthy male volunteers, headache, cough and dose-related parageusia (neat blend only), self-limiting): only mild in nature
- changes from baseline in EKG, vital signs, bloods and urinalysis ([5]; up to 2 weeks post-dose): no significant changes from baseline
